Experimental data published in publication PMC5727211, “Development of Erasin: a chromone-based STAT3 inhibitor which induces apoptosis in Erlotinib-resistant lung cancer cells” (Scientific Reports, 2017).
Like-named read-outs stand apart in the source and are kept apart here.

How the values were obtained:
[1] = test system: Erlotinib-resistant HCC-827 cells; assay: Apoptosis assay (Annexin V/7-AAD flow cytometry), Erlotinib-resistant HCC-827 cells; assay type: cell-based, human; details: 24 h
Description: Afterwards, the cell culture supernatant from each well was collected. […] The supernatants were then returned to each well to neutralize the Accutase solution and the cells were centrifuged at 3000 rpm, at 4 °C for 5 min. The cell pellets were washed twice with cold PBS and centrifuged again. […] Cells were resuspended in 1 x binding buffer and incubated with PE Annexin V and 7-AAD at 4 °C for 30 min. Apoptosis was measured using an LSR II flow cytometer (BD Bioscience). Experiments were carried out in at least triplicate. […]

STAT3 SH2 domain = STAT3 SH2 domain (Homo sapiens, UniProt P40763); assay: FP-based competitive binding assay, STAT3 SH2 domain
Sequence of STAT3 SH2 domain (P40763 whole entry, the tested form may be a part): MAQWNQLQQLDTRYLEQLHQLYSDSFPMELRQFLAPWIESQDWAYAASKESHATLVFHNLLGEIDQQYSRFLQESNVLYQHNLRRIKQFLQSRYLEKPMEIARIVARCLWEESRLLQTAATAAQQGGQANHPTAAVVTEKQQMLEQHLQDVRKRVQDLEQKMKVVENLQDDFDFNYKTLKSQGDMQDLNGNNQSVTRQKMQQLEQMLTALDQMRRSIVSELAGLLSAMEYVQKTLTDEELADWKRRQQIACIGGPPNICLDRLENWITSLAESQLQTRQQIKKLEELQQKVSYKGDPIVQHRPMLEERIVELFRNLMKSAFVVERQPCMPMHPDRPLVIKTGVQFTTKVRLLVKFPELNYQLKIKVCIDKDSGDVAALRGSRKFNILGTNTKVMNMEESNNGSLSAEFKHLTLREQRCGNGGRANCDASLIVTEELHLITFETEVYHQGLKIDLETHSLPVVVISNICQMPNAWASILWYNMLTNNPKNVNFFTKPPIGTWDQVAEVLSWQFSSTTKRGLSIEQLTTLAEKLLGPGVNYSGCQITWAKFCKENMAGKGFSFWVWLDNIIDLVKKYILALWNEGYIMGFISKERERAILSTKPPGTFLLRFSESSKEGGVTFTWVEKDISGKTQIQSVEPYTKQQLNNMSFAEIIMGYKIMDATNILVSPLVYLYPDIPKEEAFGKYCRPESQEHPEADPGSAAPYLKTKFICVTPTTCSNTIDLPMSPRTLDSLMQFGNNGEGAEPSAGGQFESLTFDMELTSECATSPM
Description: The STAT family display a high degree of homology. […] Vilsmeyer-Haack formylation of 2-hydroxy acetophenones led to 3-formyl chromones, which were subsequently converted to the acyl hydrazones by reaction with hydrazides (Fig. 1). The target molecules were tested for their abilities to inhibit binding of fluorophore-labeled peptides to the SH2 domains of STAT1[24], STAT3[25], and STAT5b[26] in assays based on fluorescence polarization (FP). The more distantly related SH2 domain of the tyrosine kinase Lck served as additional specificity control[27],[28].
Assays were performed essentially as described. In brief, protein was incubated with the test compounds for 1 h at room temperature at the following protein concentrations: STAT1: 400 nM, STAT3: 210 nM, STAT5b: 300 nM, Lck SH2: 35 nM. Subsequently, the corresponding fluorophore-labeled peptide was added: STAT1: (5-carboxyfluorescein)-GpYDKPHVL-OH, derived from the interferon-γ receptor[24]; STAT3: (5-carboxyfluorescein)-GpYLPQTV-NH2, derived from the gp130 subunit of the IL-6 receptor[25]; STAT5b: (5-carboxyfluorescein)-GpYLVLDKW-OH, derived from the erythropoietin receptor[26]; Lck SH2: (5-carboxyfluorescein)-GpYEEIP-OH, derived from the middle-T antigen. After a further hour of incubation, fluorescence polarization was measured in a plate reader (Tecan Infinite F500). Apparent IC50 data shown in Tables 1, 2, and S1 and the inhibition curves shown in Fig. 2a correspond to this time point. The majority of the pipetting work was carried out using a Biomek FXp workstation (Beckman-Coulter). […]

MDA-MB-231 cells = assay: Apoptosis assay (Annexin V/7-AAD flow cytometry), MDA-MB-231 cells; assay type: cell-based, human; details: 24 h
Description: MDA-MB-453 cells (3 × 10^5 cells per well), MDA-MB-231 cells (2 × 10^5 cells per well), parental HCC-827 or Erlotinib-resistant HCC-827 cells (both 2.5 × 10^5 cells per well) were seeded in 24-well tissue culture plates (Corning #3524) and treated with test compound or DMSO (final DMSO concentration: 0.2%) for 24 h. Afterwards, the cell culture supernatant from each well was collected. Cells were washed twice with warm PBS and incubated with Accutase (BD Bioscience #561527) at 37 °C for 10 min. The supernatants were then returned to each well to neutralize the Accutase solution and the cells were centrifuged at 3000 rpm, at 4 °C for 5 min. The cell pellets were washed twice with cold PBS and centrifuged again. PE Annexin V Apoptosis Detection Kit I (BD Bioscience, 559763) was used for cell staining. Cells were resuspended in 1 x binding buffer and incubated with PE Annexin V and 7-AAD at 4 °C for 30 min. Apoptosis was measured using an LSR II flow cytometer (BD Bioscience). Experiments were carried out in at least triplicate.

[2] = test system: STAT3 Tyr705 phosphorylation; assay: Western Blot, STAT3 Tyr705 phosphorylation in parental HCC-827 cells; assay type: cell-based, human; details: 24 h
Description: HepG2 cells were plated in 6-well plates (Corning #3516) and allowed to reach approximately 60% confluence. The medium was then replaced with serum-free medium for 24 h. Cells were subsequently pre-treated with compound or DMSO (final DMSO concentration: 0.2%) for 1 h at 37 °C, prior to stimulation for 15 min with 50 ng/mL IFNγ (Pepro Tech, for STAT1 phosphorylation), or 30 min with 50 ng/mL IL-6 (Pepro Tech, for STAT3 phosphorylation). Cells were treated with test compound or DMSO for 1 h (final DMSO concentration 0.2%). K562 cells (1.5 × 10^6 cells per well) were seeded in 6-well plates (Corning #3516) and were treated with test compound or DMSO for 1.5 h (final DMSO concentration 0.2%). […] Afterwards, cells were treated with the test compounds or DMSO (final DMSO concentration: 0.2%) for 24 h. Afterwards, the cells were washed twice with cold phosphate buffered saline (PBS). […]
(§1) Lysates were separated on a polyacrylamide gel under denaturing conditions, and transferred to a nitrocellulose membrane. STAT phosphorylation was assessed using rabbit monoclonal antibodies against the phosphorylated forms only of STAT1, STAT3 or STAT5 (Cell Signaling, 1:1000) with secondary antibody swine anti-rabbit HRP from Dako, 1:3000), followed by reblotting with rabbit monoclonal antibodies against total STAT1, STAT3 or STAT5 (Cell Signaling), and subsequently β-actin loading control. […]

STAT5 phosphorylation = assay: Western Blot, STAT5 tyrosine phosphorylation in K562 cells; assay type: cell-based, human
Source text: An inhibitor of a STAT SH2 domain prevents phosphorylation of STATs at this conserved tyrosine residue, thereby inhibiting STAT-mediated signal transduction (Fig. 3a). Consistent with its activity in the FP assay, 8 inhibited interleukin (IL)-6-stimulated STAT3 Tyr705 phosphorylation in HepG2 cells in a dose-dependent manner (Fig. 3b). […] In contrast, tyrosine phosphorylation of STAT5 in K562 cells is not inhibited (Fig. 3d). The activity profile in cells thus reflects the selectivity profile seen in vitro (Fig. 2a, Table 1), supporting the notion that cellular activities are mediated by functional inhibition of the STAT SH2 domains.
HepG2 cells were plated in 6-well plates (Corning #3516) and allowed to reach approximately 60% confluence. The medium was then replaced with serum-free medium for 24 h. […]
as §1

Row | Structure (SMILES) | increase in rate of apoptosis relative to DMSO control [1] | inhibition at 80 µM (STAT3 SH2 domain; at 80 µM, mean ± s.d., three experiments) [%] | increase in rate of apoptosis relative to DMSO control (MDA-MB-231 cells) | STAT3 Tyr705 phosphorylation [2] | IC50 (STAT3 SH2 domain; 1 h with protein, then 1 h with peptide, mean ± s.d., three experiments, read-out: STAT3 app. IC50) [µM] | effect of omission of DTT from assay buffer on inhibitory activity against STAT3 (STAT3 SH2 domain; 2 h of incubation, without DTT) | IC50 (STAT3 SH2 domain; after 9 h, read-out: apparent IC50 against wild-type STAT3 after 9 h) [µM] | tyrosine phosphorylation of STAT5 (STAT5 phosphorylation)
1 | CCC(C)(C)c1ccc2occ(/C=N/NC(=O)c3cccnc3)c(=O)c2c1 [Compound 9] | did not increase the apoptotic rate | 45 ± 5 | did not significantly increase apoptosis | did not reduce STAT3 Tyr705 phosphorylation |  |  |  | 
2 | CC(C)(C)c1ccc2occ(/C=N/NC(=O)c3cccnc3)c(=O)c2c1 [Compound 8] | equally effective |  | up to three-fold increase | dose-dependent inhibitory effect | 9.7 ± 1.8 | does not significantly increase the inhibitory activity | 2.8 | not inhibited
